# Results as given in patent US10420770B2, “Compositions and methods for treating dementia” (EIP Pharma, LLC, priority 2016, dated 2019).
# “And” between values parts separate entries of the source, which are not always exact repeats. Identical values can stand only once.
# How the values were obtained:
# [1] = Plasma pharmacokinetics, 12-week Phase IIa study (Example 1); type: in vivo, human; conditions: 40 mg dose level, twice daily, 12-week study
# Protocol: (§1) Investigators and patients were blind to the dosage strength. […] Patients were instructed to take doses within 30 minutes following a meal or snack, with each dose taken approximately 12 hours apart at the same times each day throughout the study.
# (§2) Dosing started on Day 1 following completion of all baseline procedures. During the treatment period, subjects returned to the clinic on Days 14, 28, 56, and 84. […] Dynamic PET scanning with fill quantitative analysis was performed at baseline and at the end of treatment.
# (§3) Sixteen subjects completed the full 12 weeks of treatment and all were included in safety analyses. […] In the PK analysis, due to the sparse sampling collection design, the time period from 0 to 24 hours post-dose was divided into 4 blocks in order to show the distribution of concentrations over time. […] Average blood concentration of about 8 ng/mL at the 40 mg dose level was observed. This is higher than the 5 ng/mL.
# [2] = Safety and tolerability, 12-week Phase IIa study (Example 1); type: in vivo, human; conditions: 40 mg or 125 mg twice daily, 12 weeks
# Protocol: as §1, §3
# amyloid plaque load = assay: Quantitative dynamic [11C]PiB PET amyloid scanning (RPM2-BPND), 12-week study; type: in vivo, human; conditions: for Number of Responders/Total Number in Population, PET metric Cingulate Posterior / Number of Responders/Total Number in Population, PET metric Frontal / Number of Responders/Total Number in Population, PET metric Global / Number of Responders/Total Number in Population, PET metric Med Temp Lobe / Number of Responders/Total Number in Population, PET metric Parietal / Number of Responders/Total Number in Population, PET metric Temporal: responder = reduction of ≥7% in RPM2-BPND
# Protocol: as §2
# Target engagement was assessed through the use of an AD-related biomarker. The primary endpoint was based on assessment of amyloid plaque burden using quantitative dynamic PET amyloid scanning (Tolboom, N. et al. “Test-retest variability of quantitative [^11C]PIB studies in Alzheimer's disease.” Eur. J. Nucl. Med. Mol. Imaging 36(10): 1629-1638 (2009)). The method of van Berckel et al (van Berckel B N, R. Ossenkoppele, et al. “Longitudinal amyloid imaging using ^11CPiB: Methodologic considerations.” J. Nucl. Med. 5=1; 1570-1576 (2013)) was followed, in which dynamic emission scanning consists of 23 frames with progressive increases in frame duration (1·15, 3·5, 3·10, 2·30, 3·60, 2·150, 2·300, and 7·600 s) for a total scan duration of 90 min; and subsequently full quantitative data analysis of the images was performed by reference parametric mapping (RPM2) using cerebellum as reference tissue. This methodology allowed for a more reliable (i.e. less variable) assessment of brain amyloid plaque load than standard amyloid PET imaging. In addition this method of measuring amyloid burden has high scan-to-scan stability (˜2-3% test-test variability) within subjects. No placebo group was enrolled. Instead, reductions in brain amyloid plaque load of greater than 7%, which is definitively outside the range of test-test variability, were considered to be a drug effect in this study.
# [3] = Brain versus blood exposure in animals (preclinical PK); type: in vivo; conditions: brain relative to peripheral blood, read-out: exposure in the brains of animals relative to peripheral blood
# [4] = tested on: amyloid-beta peptides (Aβ 38/40/42); assay: CSF amyloid-beta peptides, 6-week study; type: in vivo, human; conditions: baseline to Day 41; p=0.01 to p=0.047
# Protocol: Effects on CSF levels of Aβ peptides were evaluated as measures of the amyloidenic process, which is activated with aging and more so in patients with Alzheimer's disease.
# Target engagement was assessed through the evaluation of the effect of drug treatment on CSF biomarkers. CSF was collected at 6 time-points over 24 hours at baseline (the 24 hours prior to first dose) and again at 6 time-points over 24 hours near the end of treatment on Day 40. The samples were evaluated by the Mesoscale Discovery ELISA platform for multiple cytokines ((IFN-γ, IL-1β, IL-2, IL-4, IL-5, IL-8, IL-12 protein 70, IL-13, TNFα, and CSF) and for amyloid-beta peptides (Aβ 38/40/42).
# butylcholinesterase = assay: CSF butylcholinesterase, 6-week study; type: in vivo, human; conditions: baseline to day 40
# synaptic function = assay: Quantitative EEG, 6-week study; type: in vivo, human
# Protocol: Quantitative EEG was conducted as a measure of the effects of inflammatory cytokines on synaptic function and the effects of modulation of p38 MAPK on synaptic plasticity. Brain fluorodeoxyglucose (FDG) PET scan was conducted at the Screening Visit and Day 40 to measure brain metabolism. In addition, CSF drug levels of VX-745 were obtained to confirm delivery of drug to the brain.
smiles,measurement,setting,value
O=c1ncn2nc(Sc3ccc(F)cc3F)ccc2c1-c1c(Cl)cccc1Cl [VX-745],Average blood concentration,[1],about 8 ng/mL
same,liver transaminase elevations,[2],No liver transaminase elevations
same,serious adverse events,[2],No serious adverse events
same,tolerability,[2],well tolerated
same,subjects between 3 and 7% (% change RPM2_BPND),amyloid plaque load; 40 mg,2
same,subjects who reached the 7% responder criterion (% change RPM2_BPND),amyloid plaque load; 40 mg,3
same,"Number of Responders/Total Number in Population, PET metric Cingulate Posterior",amyloid plaque load; 40 mg twice daily 12 weeks,2/8
same,"Number of Responders/Total Number in Population, PET metric Frontal",amyloid plaque load; 40 mg twice daily 12 weeks,3/8
same,"Number of Responders/Total Number in Population, PET metric Global",amyloid plaque load; 40 mg twice daily 12 weeks,3/8
same,"Number of Responders/Total Number in Population, PET metric Med Temp Lobe",amyloid plaque load; 40 mg twice daily 12 weeks,4/8
same,"Number of Responders/Total Number in Population, PET metric Parietal",amyloid plaque load; 40 mg twice daily 12 weeks,3/8
same,"Number of Responders/Total Number in Population, PET metric Temporal",amyloid plaque load; 40 mg twice daily 12 weeks,2/8
same,"Number of Responders/Total Number in Population, PET metric Cingulate Posterior",amyloid plaque load; 125 mg twice daily 12 weeks,0/7
same,"Number of Responders/Total Number in Population, PET metric Frontal",amyloid plaque load; 125 mg twice daily 12 weeks,1/7
same,"Number of Responders/Total Number in Population, PET metric Global",amyloid plaque load; 125 mg twice daily 12 weeks,1/7
same,"Number of Responders/Total Number in Population, PET metric Med Temp Lobe",amyloid plaque load; 125 mg twice daily 12 weeks,2/7
same,"Number of Responders/Total Number in Population, PET metric Parietal",amyloid plaque load; 125 mg twice daily 12 weeks,0/7
same,"Number of Responders/Total Number in Population, PET metric Temporal",amyloid plaque load; 125 mg twice daily 12 weeks,1/7
same,"Percentage reduction in global cortical RPM2-BPND, individual responders","amyloid plaque load; 3 responders in the 40 mg dose group, 12 weeks",−11.6% and −11.9% and −40.5%
same,"Number of Responders/Total Number in Population, PET metric Cingulate Posterior","amyloid plaque load; All, 12 weeks",2/15
same,"Number of Responders/Total Number in Population, PET metric Frontal","amyloid plaque load; All, 12 weeks",4/15
same,"Number of Responders/Total Number in Population, PET metric Global","amyloid plaque load; All, 12 weeks",4/15
same,"Number of Responders/Total Number in Population, PET metric Med Temp Lobe","amyloid plaque load; All, 12 weeks",6/15
same,"Number of Responders/Total Number in Population, PET metric Parietal","amyloid plaque load; All, 12 weeks",3/15
same,"Number of Responders/Total Number in Population, PET metric Temporal","amyloid plaque load; All, 12 weeks",3/15
same,"Percentage reduction in global cortical RPM2-BPND, individual responder","amyloid plaque load; one responder in the 125 mg dose group, 12 weeks",−7.7%
same,Kp,[3],~1.7
same,correlation between plasma drug concentration and increases in CSF Aβ 38/40/42 levels,[4],statistically significant correlation
same,CSF levels of butylcholinesterase,butylcholinesterase,no change
same,EEG,synaptic function,potential positive pharmacodynamics effect
